Experimental data as given in paper PMC4541799 (Journal of ethnopharmacology, 2015).
≈ marks a conversion by molar mass, not a printed value.

Key:
[1] = tested on: SCC2095 (oral squamous cell carcinoma cell line); assay: Anti-proliferation MTT assay in SCC2095 cell line; assay type: cell-based, human
SCC2095 cells = assay: Cellular uptake / intracellular accumulation in SCC2095 cells; assay type: in vitro ADME, human; conditions: SCC2095 cells incubated with GS409, at different incubation time (2 or 4 hours)
Caco-2 cell monolayer = assay: Transport study in Caco-2 cell culture model; assay type: in vitro ADME, human; conditions: translated from Caco-2 permeability; ref Artursson & Karlsson, 1991
[2] = SCC2095 cell line, MTT, 48 hours incubation

IC50 ([1]; Homo sapiens, 48 h) | IC50 [1, 2] | SMILES | further results
> 100 µg/mL |  | CC1(C)OC(=O)C=C[C@]2(C)[C@H]3CC[C@@]4(C)[C@H](c5ccoc5)OC(=O)[C@H]5O[C@]54[C@]3(C)C(=O)C[C@@H]12 [Obacunone, obacunone] | 
 | >100 µg/mL | CC1(C)O[C@H]2CC(=O)OC[C@]23[C@H]2CC[C@@]4(C)[C@H](c5ccoc5)OC(=O)[C@H]5O[C@]54[C@]2(C)[C@@H](O)C(=O)[C@@H]13 [Rutaevine, rutaevine] | 
> 100 µg/mL |  | CC1(C)O[C@H]2CC(=O)OC[C@]23[C@H]2CC[C@@]4(C)[C@H](c5ccoc5)OC(=O)[C@H]5O[C@]54[C@]2(C)C(=O)C[C@@H]13 [Limonin, limonin] | 
> 100 µg/mL |  | OC[C@H]1O[C@@H](Oc2ccc3c(c2)OC[C@H]2c4cc5c(cc4O[C@@H]32)OCO5)[C@H](O)[C@@H](O)[C@@H]1O [Trifolirhizin, trifolirhizin] | 
 | 28.61 µg/mL (≈ 220 µM) | O=c1[nH]cc(F)c(=O)[nH]1 [5-Fu (positive control), reference compound] | 
86.3 µg/mL (≈ 304 µM) |  | Oc1ccc2c(c1)OC[C@H]1c3cc4c(cc3O[C@@H]21)OCO4 [Maackiain, maackiain] | intracellular accumulation among the 9 components (SCC2095 cells): relatively high
28.6 µg/mL (≈ 123 µM) |  | CC1=C2C(=O)O[C@@H](c3ccoc3)[C@]2(C)CCC1 [Fraxinellone, fraxinellone] | intracellular accumulation among the 9 components (SCC2095 cells): relatively high; absorption in the human intestine following oral administration (Caco-2 cell monolayer): more than 70%
 | >100 µg/mL | CC1(C)O[C@H]2CC(=O)OC[C@@]23C1=C(O)C(=O)[C@]1(C)[C@@H]3CC[C@@]2(C)[C@H](c3ccoc3)OC(=O)[C@H]3O[C@]321 [Evodol, evodol] | 

SMILES | IC50 ([1]; Homo sapiens, 48 h) | IC50 [1, 2] | further results
O=C1CCC[C@@H]2[C@H]3CCCN4CCC[C@@H](CN12)[C@@H]34 [Matrine, matrine] | > 100 µg/mL |  | 
